From US20230000896A1, “ALDH3A2 INHIBITION AND FERROPTOSIS INDUCTION FOR CANCER THERAPY” (President and Fellows of Harvard College, priority 2019, published 2023)
Residues, ends and D or L forms follow the SMILES beside them. *: point of attachment. Cbz = O=C(OCc1ccccc1)*; CH2F = FC*

Assays:
[1] = tested on: leukemic stem and progenitor cells (LSPCs); assay: cellular ROS by flow cytometry in Aldh3a2-control and mutant LSPCs; assay type: cell-based, mouse; settings: FIG. 5C
Source text: (§1) Aldehyde dehydrogenases metabolize aldehydes to mitigate oxidative stress and prevent lipid peroxidation in the cell. […] Next, oxidative damage in AML cells lacking Aldh3a2 was examined. […] To further assess deficits in detoxification capacity, the effects of 4-hydroxynonenal (4-HNE) was studied next, a commonly investigated fatty aldehyde and a byproduct of arachidonic acid catabolism, on cellular ROS, lipid peroxidation and proliferation in Aldh3a2-deficient leukemia stem and progenitor cells. […] Lastly, normal granulocyte monocyte precursors (N-GMPs) were investigated. […] Spleens from Aldh3a2-Ctrl and Aldh3a2-mut mice were utilized to obtain single cell suspensions and were incubated with C11 Bodipy lipid peroxidation sensor (ThermoFisher Cat #C10445) or CellRox reagent (ThermoFisher Cat #C10491) for 30 minutes at […]. Cells were stained with biotinylated antibodies against lineage markers, SA-Pacific Orange conjugate (ThermoFisher) and APC Rat Anti-Mouse CD117 (BD Biosciences) and read on the LSRII flow cytometer. Lipid peroxidation and cellular ROS was assessed in Lineage-, c-Kit^+ and Lineage^−, c-Kit^hi populations. RSL3 (at 5 uM), 4-HNE (5 uM) and ZVAD (at 10 uM) was added to Lin-Kit- or Lin-Kit+ leukemic cells in RPMI containing 10 ng/ul of murine IL3, IL6 and SCF. […] Number of cells were measured by Celltiter GloR 2.0 assay at days 0, 1 and 3. […]

[2] = tested on: leukemic stem and progenitor cells (LSPCs); assay: lipid peroxidation by flow cytometry in Aldh3a2-control and mutant LSPCs; assay type: cell-based, mouse; settings: FIG. 5D
Source text: as §1

[3] = tested on: leukemic stem and progenitor cells (LSPCs); assay: growth kinetics of Aldh3a2-control and mutant LSPCs treated with 4HNE; assay type: cell-based, mouse; settings: 4-HNE 5 uM, FIG. 5E
Source text: Aldehyde dehydrogenases metabolize aldehydes to mitigate oxidative stress and prevent lipid peroxidation in the cell. […] Next, oxidative damage in AML cells lacking Aldh3a2 was examined. […] To further assess deficits in detoxification capacity, the effects of 4-hydroxynonenal (4-HNE) was studied next, a commonly investigated fatty aldehyde and a byproduct of arachidonic acid catabolism, on cellular ROS, lipid peroxidation and proliferation in Aldh3a2-deficient leukemia stem and progenitor cells. […] Lastly, normal granulocyte monocyte precursors (N-GMPs) were investigated. […] RSL3 (at 5 uM), 4-HNE (5 uM) and ZVAD (at 10 uM) was added to Lin-Kit- or Lin-Kit+ leukemic cells in RPMI containing 10 ng/ul of murine IL3, IL6 and SCF. Ferrostatin (10 uM) was added to bulk leukemic cells in RPMI containing 10 ng/ul of murine IL3, TPO and FLT3L. Number of cells were measured by Celltiter GloR 2.0 assay at days 0, 1 and 3. 10 mM of NAC was added to RPMI with 10 percent FBS and 1 percent P/S for relevant rescue experiments. Drugs were purchased from Sigma.

[4] = tested on: Aldh3a2-control and mutant LSPCs; assay: frequency of live Aldh3a2-control and mutant LSPCs after drug treatment; assay type: cell-based, mouse; settings: three days
Source text: The specific mechanism for the reduced number of leukemic cells upon Aldh3a2 deletion was next investigated.
Lipid peroxidation has been linked to the induction of ferroptosis, a non-apoptotic, iron-dependent form of cell death. An increase in lysophospholipids, especially those lacking PUFA tails as was observed (FIG. 13E), is a hallmark of ferroptosis. In addition, the ability to rescue cell death by providing exogenous MUFAs, as was found (FIG. 12H), is another feature of ferroptotic cell death. To further confirm these findings cells were treated with ferrostatin, an inhibitor of iron-dependent oxidative damage.
To further assess the relationship to ferroptosis, a key enzyme protecting cells from ferroptotic cell death, glutathione peroxidase 4 (Gpx4) was genetically and pharmacologically targeted. […] Recent findings have shown that activation of MUFAs by Acs13 can also promote resistance to ferroptosis. Acs13 expression was not different between Aldh3a2 control and mutant leukemic cells (FIG. 13F).
(§2) RSL3 (at 5 uM), 4-HNE (5 uM) and ZVAD (at 10 uM) was added to Lin-Kit- or Lin-Kit+ leukemic cells in RPMI containing 10 ng/ul of murine IL3, IL6 and SCF. Ferrostatin (10 uM) was added to bulk leukemic cells in RPMI containing 10 ng/ul of murine IL3, TPO and FLT3L. Number of cells were measured by Celltiter GloR 2.0 assay at days 0, 1 and 3. 10 mM of NAC was added to RPMI with 10 percent FBS and 1 percent P/S for relevant rescue experiments. Drugs were purchased from Sigma.

THP-1 cells = assay: growth kinetics of ALDH3A2-depleted THP-1 cells treated with NAC; assay type: cell-based, human; settings: 10 mM NAC, FIG. 12D
Protocol: In cells cultured in [1,2-^13C2]glucose, the oxPPP generates singly ^13C labeled (M1) intermediates, glycolysis generates doubly 13C labeled (M2) intermediates, and the M1/M2 ratio reflects the oxPPP flux relative to glycolysis (FIG. 12E). […] Cells lacking ALDH3A2 thus fail to increase antioxidant defense mechanisms to mitigate the increased oxidative stress and prevent lipid peroxidation.
as §2

[5] = tested on: Aldh3a2-control and mutant leukemic cells; assay: fatty acid rescue experiments (viability by flow cytometry); assay type: cell-based, mouse; settings: FIG. 12H
Protocol: By detoxifying fatty aldehydes, Aldh3a2 generates fatty acids that can be used for biosynthetic purposes (FIG. 12A). […] To further investigate the consequences of this depletion of 18-carbon fatty acids in Aldh3a2 knockout cells lipidomics analysis was performed on leukemic cells derived from conditional knockout mice (FIGS. 13A-13E). Several, but not all, phospholipid species containing 18-carbon fatty acid tails were decreased in mutant cells across lipid classes, including phosphatidylcholines, phosphatidylethanolamines, cardiolipins and phosphatidic acids (FIGS. 13A-13D).
Cell viability was analyzed using Annexin V-APC (BioLegend) and 7-AAD (ThermoFisher Scientific) with Annexin V^−7-AAD^− cells considered as viable cells. Analysis was performed on A BD LSR II flow cytometer.
Bulk GFP+ cells sorted from wildtype or mutant mice were plated in a 24 well plate at 50,000 cells per well. Oleic acid (Sigma), complexed to fatty acid-free bovine serum albumin, was added at concentrations of 62.5, 125 or 250 μM. Ethanol/albumin was used as control. 72 hours later cell viability was analyzed by flow cytometry.

N-GMPs = assay: methylcellulose assay of shRNA-infected N-GMPs; assay type: cell-based, mouse; settings: compared to control shRNA, FIG. 3A
Source text: Then a constitutive knockout mouse model (KO) was utilized where Aldh3a2 enzyme activity was decreased to less than 50 percent of wild-type (WT) control mice (FIG. 3B). (This model consists of a deletion of exon 4 of the Aldh3a2 gene which completely destroys Aldh3a2 enzyme activity but assays of cell homogenates measure total fatty aldehyde oxidizing activity including aldehyde dehydrogenases other than Aldh3a2).
(§3) Ten thousand N-GMPs or L-GMPs infected with lentiviruses expressing relevant shRNAs were added to 3 cc of methylcellulose (StemCell Technologies) plated per well of a 6 well plate. Number of cells were counted on day 7.

Aldh3a2 = assay: Q-PCR validation of Aldh3a2 knockdown in L-GMPs; assay type: cell-based, mouse; settings: FIG. 2B
Protocol: (§4) However, its functional role in normal and malignant hematopoiesis is unclear. […] Aldh3a2 knockdown in L-GMPs decreased the number of cells in a methylcellulose assay (FIG. 2C and FIG. 9A) that quantifies growth on a per cell basis.
RNA was extracted from cells using the RNeasy Micro Kit (Qiagen) and RT-PCR was performed using the SuperScript™ IV One-Step RT-PCR System according to the manufacturer's instructions. Taqman probes were used to perform Q-PCR for murine and human Aldh3a2.

[6] = tested on: MLL-AF9 leukemia (L-GMPs); assay: survival of sublethally irradiated C57BL/6J mice transplanted with shRNA-expressing L-GMPs; assay type: in vivo, mouse; settings: ten thousand L-GMPs transplanted, vs control shRNA, FIG. 2D
Source text: To evaluate Aldh3a2 knockdown in vivo, ten thousand L-GMPs expressing Aldh3a2-sh-1, Aldh3a2-sh-2 or control shRNA were transplanted into sublethally irradiated C57BL/6J recipient mice and followed over time.

L-GMPs = assay: methylcellulose assay of shRNA-infected L-GMPs; assay type: cell-based, mouse; settings: compared to control shRNA, FIG. 2C
Protocol: as §4, §3

## CCCCCC(O)/C=C/C=O (stereo not shown) [4-HNE, 4-hydroxynonenal]
[1]; 4-HNE exposure for 24 hours
  cellular ROS: increased cellular ROS in mutant but not control cells
[2]; 4-HNE exposure
  lipid peroxidation: increased levels of lipid peroxidation in mutant but not in control cells
[3]
  sensitivity to 4HNE, mutant versus control: significantly greater in mutant than in control cells
[3]; control and mutant cells
  cell growth: reduced cell growth

## CCOC(=O)c1ccc(NC2CCCCC2)c(N)c1 [Ferrostatin]
[4]; Ferrostatin 10 uM, FIG. 6H and 14B
  cell death in Aldh3a2 mutant leukemia cells: completely prevented the cell death

## CC(=O)N[C@@H](CS)C(=O)O [NAC, N-Acetyl-L-Cysteine]
THP-1 cells
  rescue of ALDH3A2 depleted THP-1 cells: partial rescue in the population of cells with moderate (sh-A) but not severe (sh-B) ALDH3A2 depletion

## COC(=O)c1ccc([C@@H]2c3[nH]c4ccccc4c3C[C@@H](C(=O)OC)N2C(=O)CCl)cc1 [RSL3]
[4]; RSL3 5 uM, FIG. 6I and 14C
  sensitivity of Aldh3a2 deficient Lin-cKit+ AML cells: increased sensitivity

## CC(NC(=O)C(NC(=O)OCc1ccccc1)C(C)C)C(=O)NC(CC(=O)O)C(=O)CF (stereo not drawn) [Z-VAD] (Cbz-Val-Ala-Asp-CH2F; configuration not given here)
[4]; ZVAD 10 uM, Lin- cKit+ cells, FIG. 6F
  rescue of cell death in Aldh3a2 deficient cells: did not rescue the cell death

## CCCCCCCC/C=C\CCCCCCCC(=O)O [oleic acid]
[5]; exogenous oleic acid (18:1), conditional mutant mice
  rescue of the effects of Aldh3a2 depletion: rescued the effects of Aldh3a2 depletion
[5]; three days culture, 62.5, 125 or 250 μM tested
  concentration of maximum rescue of cells from death: 125 µM

## Aldh3a2-sh-1: shRNA against mouse Aldh3a2, GCAGGAAATGCTGTGATTATA (SEQ ID NO: 1)
N-GMPs
  number of N-GMPs in methylcellulose: no difference in the number of N-GMPs
Aldh3a2
  Aldh3a2 expression in L-GMPs: decreased Aldh3a2 expression in L-GMPs
[6]
  survival of recipient mice: survive significantly longer than control animals
L-GMPs
  number of L-GMPs in methylcellulose: significantly decreases the number of L-GMPs in methylcellulose

## Aldh3a2-sh-2: shRNA against mouse Aldh3a2, CCTCTGGCTCTTTATGTATTT (SEQ ID NO: 2)
Aldh3a2
  Aldh3a2 expression in L-GMPs: decreased Aldh3a2 expression in L-GMPs
[6]
  survival of recipient mice: survive significantly longer than control animals
L-GMPs
  number of L-GMPs in methylcellulose: significantly decreases the number of L-GMPs in methylcellulose

## Vitamin E
[1]; 4HNE plus vitamin E treatment
  total ROS: decreased total ROS in control cells but was unable to do so in mutant cells
[2]; 4HNE plus vitamin E treatment
  lipid peroxidation: significantly decreased lipid peroxidation in both populations
